Results reported in PubChem BioAssay (NCI).
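Briefly, cells in 96-well plates were exposed to five compound concentrations for 48 h, and endpoints were estimated by linear interpolation. GI50 = concentration required for 50% inhibition of growth. TGI: concentration producing complete growth inhibition.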

Key:
Test in all cases: NCI-60 cell line screen, 48 h
[1] = test system: A498 renal
[2] = test system: HCT-116 colon
[3] = test system: SNB-19 CNS
[4] = test system: UACC-257 melanoma
[5] = test system: SK-MEL-28 melanoma
[6] = test system: MDA-MB-435
[7] = test system: EKVX NSCLC
[8] = test system: MDA-MB-231 breast
[9] = test system: SK-MEL-5 melanoma
[10] = test system: UACC-62 melanoma
[11] = test system: DLD-1 colon
[12] = test system: M19-MEL melanoma
[13] = test system: LXFL 529 NSCLC
[14] = test system: M14 melanoma
[15] = test system: HL-60(TB) leukemia
[16] = test system: CCRF-CEM leukemia
[17] = test system: OVCAR-5 ovarian
[18] = test system: DMS 273 small cell lung
[19] = test system: TK-10 renal
[20] = test system: SNB-75 CNS
[21] = test system: HOP-92 NSCLC
[22] = test system: XF 498 CNS
[23] = test system: KM12 colon
[24] = test system: NCI/ADR-RES ovarian
[25] = test system: UO-31 renal
[26] = test system: HOP-62 NSCLC
[27] = test system: NCI-H226 lung
[28] = test system: SF-268 CNS
[29] = test system: IGROV1 ovarian
[30] = test system: A549 NSCLC
[31] = test system: CAKI-1 renal
[32] = test system: BT-549 breast
[33] = test system: DU-145 prostate
[34] = test system: HS 578T breast
[35] = test system: ACHN renal
[36] = test system: OVCAR-3 ovarian
[37] = test system: NCI-H23 lung
[38] = test system: HCT-15 colon
[39] = test system: KM20L2 colon
[40] = test system: LOX IMVI melanoma
[41] = test system: OVCAR-8 ovarian
[42] = test system: RPMI-8226 leukemia
[43] = test system: NCI-H460 lung
[44] = test system: SN12C renal
[45] = test system: OVCAR-4 ovarian
[46] = test system: HOP-18 NSCLC
[47] = test system: COLO 205 colon
[48] = test system: RXF 393 renal
[49] = test system: 786-0 renal
[50] = test system: SK-MEL-2 melanoma
[51] = test system: T-47D breast
[52] = test system: MCF7 breast
[53] = test system: HCC-2998 colon
[54] = test system: K-562 leukemia
[55] = test system: DMS 114 small cell lung
[56] = test system: SF-295 CNS
[57] = test system: SF-539 CNS
[58] = test system: MALME-3M melanoma
[59] = test system: PC-3 prostate
[60] = test system: SW-620 colon
[61] = test system: HT29 colon
[62] = test system: MOLT-4 leukemia
[63] = test system: SR leukemia
[64] = test system: NCI-H522 lung
[65] = test system: SK-OV-3 ovarian
[66] = test system: U251 CNS
[67] = test system: SNB-78 CNS

CC(C)(C)c1cc(C(=O)O)c2c(c1)C(=O)OC2(c1ccccc1)c1ccccc1C(=O)O (stereo not drawn)
GI50 [1]: > 100 µM | TGI [1]: > 100 µM | TGI [2]: > 100 µM | TGI [3]: > 100 µM | TGI [4]: > 100 µM | TGI [5]: > 100 µM | GI50 [6]: > 100 µM | TGI [6]: > 100 µM | TGI [7]: > 100 µM | GI50 [8]: > 100 µM | TGI [8]: > 100 µM | GI50 [9]: > 100 µM | TGI [9]: > 100 µM | TGI [10]: > 100 µM | TGI [11]: > 100 µM | TGI [12]: > 100 µM | TGI [13]: > 100 µM | TGI [14]: > 100 µM | TGI [15]: > 100 µM | TGI [16]: > 100 µM | TGI [17]: > 100 µM | TGI [18]: > 100 µM | TGI [19]: > 100 µM | TGI [20]: > 100 µM | TGI [21]: > 100 µM | TGI [22]: > 100 µM | TGI [23]: > 100 µM | GI50 [24]: > 100 µM | TGI [24]: > 100 µM | TGI [25]: > 100 µM | TGI [26]: > 100 µM | TGI [27]: > 100 µM | TGI [28]: > 100 µM | GI50 [29]: > 100 µM | TGI [29]: > 100 µM | TGI [30]: > 100 µM | TGI [31]: > 100 µM | GI50 [32]: > 100 µM | TGI [32]: > 100 µM | GI50 [33]: > 100 µM | TGI [33]: > 100 µM | GI50 [34]: > 100 µM | TGI [34]: > 100 µM | TGI [35]: > 100 µM | TGI [36]: > 100 µM | TGI [37]: > 100 µM | TGI [38]: > 100 µM | TGI [39]: > 100 µM | TGI [40]: > 100 µM | TGI [41]: > 100 µM | GI50 [42]: > 100 µM | TGI [42]: > 100 µM | TGI [43]: > 100 µM | TGI [44]: > 100 µM | TGI [45]: > 100 µM | TGI [46]: > 100 µM | TGI [47]: > 100 µM | TGI [48]: > 100 µM | TGI [49]: > 100 µM | TGI [50]: > 100 µM | GI50 [51]: > 100 µM | TGI [51]: > 100 µM | GI50 [52]: > 100 µM | TGI [52]: > 100 µM | TGI [53]: > 100 µM | TGI [54]: > 100 µM | TGI [55]: > 100 µM | TGI [56]: > 100 µM | TGI [57]: > 100 µM | TGI [58]: > 100 µM | GI50 [59]: > 100 µM | TGI [59]: > 100 µM | TGI [60]: > 100 µM | TGI [61]: > 100 µM | TGI [62]: > 100 µM | TGI [63]: > 100 µM

Cc1ccc(C2=Nc3ccccc3SC(c3cccc4c3OCO4)C2)cc1 (stereo not drawn)
TGI [1]: 43.6 µM | TGI [64]: 31 µM | TGI [3]: 30.7 µM | TGI [4]: 38.4 µM | TGI [5]: 32.9 µM | TGI [7]: 38.7 µM | TGI [65]: 76.3 µM | TGI [9]: 31.1 µM | TGI [10]: 41.9 µM | TGI [11]: 90.3 µM | TGI [12]: 36.3 µM | TGI [13]: 28.9 µM | TGI [14]: 34.9 µM | TGI [15]: 39 µM | TGI [16]: 37.9 µM | TGI [17]: 51.5 µM | TGI [18]: 40.2 µM | TGI [19]: 40.3 µM | TGI [20]: 28.8 µM | TGI [22]: 29 µM | TGI [23]: 32.5 µM | TGI [25]: 27.3 µM | TGI [26]: > 100 µM | TGI [27]: 37 µM | TGI [28]: 45.6 µM | TGI [29]: 42.4 µM | TGI [30]: 72.4 µM | TGI [31]: 30 µM | TGI [35]: 53.8 µM | TGI [36]: 28.5 µM | TGI [37]: 39.8 µM | TGI [38]: 54.1 µM | TGI [39]: 41.2 µM | TGI [40]: 31.1 µM | TGI [41]: 65.3 µM | TGI [42]: 54.2 µM | TGI [43]: > 100 µM | TGI [44]: 41 µM | TGI [45]: 33.7 µM | TGI [46]: 38.4 µM | TGI [47]: 35.6 µM | TGI [49]: 39.9 µM | TGI [50]: 44 µM | TGI [53]: 41.3 µM | TGI [54]: 38.3 µM | TGI [56]: 45.6 µM | TGI [57]: 40.2 µM | TGI [58]: 56 µM | TGI [60]: 39.8 µM | TGI [61]: 33.2 µM | TGI [62]: 55.7 µM

CN(C)C(F)=PC(F)(F)F (stereo not drawn)
TGI [1]: > 100 µM | TGI [2]: > 100 µM | TGI [64]: > 100 µM | TGI [3]: > 100 µM | TGI [4]: > 100 µM | TGI [5]: > 100 µM | TGI [7]: > 100 µM | TGI [65]: > 100 µM | TGI [9]: > 100 µM | TGI [10]: > 100 µM | TGI [11]: > 100 µM | TGI [12]: > 100 µM | TGI [13]: > 100 µM | TGI [14]: > 100 µM | TGI [15]: > 100 µM | TGI [66]: > 100 µM | TGI [16]: > 100 µM | TGI [17]: > 100 µM | TGI [18]: > 100 µM | TGI [19]: > 100 µM | TGI [67]: > 100 µM | TGI [20]: > 100 µM | TGI [21]: > 100 µM | TGI [22]: > 100 µM | TGI [23]: > 100 µM | TGI [25]: > 100 µM | TGI [26]: > 100 µM | TGI [27]: > 100 µM | TGI [28]: > 100 µM | TGI [29]: > 100 µM | TGI [30]: > 100 µM | TGI [31]: > 100 µM | TGI [35]: > 100 µM | TGI [37]: > 100 µM | TGI [38]: > 100 µM | TGI [39]: > 100 µM | TGI [40]: > 100 µM | TGI [41]: > 100 µM | TGI [42]: > 100 µM | TGI [43]: > 100 µM | TGI [44]: > 100 µM | TGI [45]: > 100 µM | TGI [46]: > 100 µM | TGI [47]: > 100 µM | TGI [48]: > 100 µM | TGI [49]: > 100 µM | TGI [50]: > 100 µM | TGI [53]: > 100 µM | TGI [54]: > 100 µM | TGI [55]: > 100 µM | TGI [56]: > 100 µM | TGI [57]: > 100 µM | TGI [58]: > 100 µM | TGI [60]: > 100 µM | TGI [61]: > 100 µM | TGI [62]: > 100 µM
